According to paper PMC9146228, “Bioactivity of Novel Pyrazole-Thiazolines Scaffolds against Trypanosoma cruzi: Computational Approaches and 3D Spheroid Model on Drug Discovery for Chagas Disease” (Pharmaceutics, 2022):

Columns and labels:
[1] = test system: T. cruzi (Dm28c-Luc) intracellular amastigotes; assay: Trypanocidal activity against intracellular amastigotes in infected Vero cell monolayers; assay type: cell-based, Trypanosoma cruzi; details: Trypanosoma cruzi; Dm28c-Luc in Vero cells, 72 h, mean ± SD; read-out: Trypanocidal Activity Intracellular Amastigotes IC90
Description: The susceptibility of intracellular amastigotes to pyrazole-thiazoline derivatives (series 1 and 2) was evaluated using 24 h T. cruzi-infected Vero cell monolayers (10:1 parasite/host cell ratio). Then, the cultures were washed with PBS to remove non-internalized parasites, and 200 μL of fresh medium with a serial dilution of pyrazole-thiazoline derivatives and Bz (0.41–100 µM) was added for 72 h at 37 °C.
(§1) After 72 h of treatment, luciferin (300 µg/mL) was added to the culture, and the viability of the parasites was assessed by reading the luminescent signal on the GloMax reader (Promega Corporation, Madison, WI, USA). Controls were also performed in non-toxic concentrations of DMSO (≤ 1%). The concentration that reduces the number of viable parasites by 50% (IC50) or 90% (IC90) was calculated by linear regression. The selectivity index (SI) was calculated as CC50/IC50 for each parasite form.

[2] = test system: T. cruzi (Dm28c-Luc) trypomastigotes; assay: microbe, parasite or virus in culture; assay type: cell-based, Trypanosoma cruzi; details: Trypanosoma cruzi; Dm28c-Luc, 24 h, mean ± SD; read-out: Trypanocidal Activity Trypomastigotes IC90
Description: The screening assays were performed with T. cruzi clone Dm28c (TcI) genetically modified to express luciferase gene (Dm28c-Luc), kindly provided by Dr. Cristina Henriques. Trypomastigotes were isolated from T. cruzi-infected Vero cell monolayers (10:1 parasites/host cell ratio). On the 4th day post-infection (dpi), free trypomastigotes in the culture supernatant were harvested, and the number of parasites/mL was quantified in a Neubauer chamber.
The trypanocidal activity of the pyrazole-thiazoline derivatives was evaluated against trypomastigote and intracellular amastigote forms of T. cruzi (Dm28c-Luc). Tissue-derived trypomastigotes (1 × 10^6 parasites/well) were incubated with pyrazole-thiazoline derivatives and Bz in different concentrations (0.41–100 µM) for 24 h at 37 °C in a humidified atmosphere and 5% CO2. The parasite viability was determined by the addition of luciferin (300 µg/mL), followed by luminescence detection on the GloMax microplate reader (Promega Corporation, Madison, WI, USA).
as §1

[3] = test system: T. cruzi Dm28c-Luc in Vero cell cultures; assay: Reversibility (washout) assay; assay type: cell-based, Trypanosoma cruzi; details: 50 µM, 72 h treatment then 72 h drug-free
Description: Then, the cultures were washed with PBS, and maintained for another 72 h at 37 °C in a drug-free medium. Trypomastigotes released in the culture supernatant were detected by transferring the culture medium to 96-well plates, followed by luciferin (300 µg/mL) addition. Viable intracellular amastigotes were also accessed by adding luciferin solution to the cell monolayers.

[4] = Cytotoxicity in vitro assay (CellTiter-Glo); assay type: cell-based; details: African green monkey, Vero cells, mean ± SD
Description: (§2) Vero cells, obtained from the Rio de Janeiro Cell Bank (BCRJ code 0245), were dissociated with trypsin–EDTA solution (0.025%), and maintained in RPMI 1640 medium supplemented with 10% fetal bovine serum (FBS) at 37 °C in a humidified atmosphere of 5% CO2.
(§3) The compound toxicity was evaluated in Vero cell cultures. Briefly, Vero cells were seeded in 96-well white culture plates at a density of 1.5 × 10^4 cells/well for 24 h at 37 °C and 5% CO2. Thereafter, the cell monolayers were washed with phosphate-buffered saline (PBS) and 200 μL of fresh medium with a serial dilution of the pyrazole-thiazoline derivatives and Bz (1.9–500 µM) added. The cell viability was determined by luminescent assay using the CellTiter-Glo Kit (Promega Corporation, Madison, WI, USA) based on the ATP level. After 72 h of treatment, 20 μL of CellTiter-Glo solution was added per well, and cultures were kept for 2 min under agitation. The luminescent signal was read on the GloMax reader (Promega Corporation, Madison, WI, USA). The concentration of compounds that reduced 50% of cell viability (CC50) was calculated by linear regression. At least three independent assays were performed in duplicate.

Vero cells = assay: Cytotoxicity in vitro assay (CellTiter-Glo); assay type: cell-based; details: 72 h, mean ± SD
Description: as §2, §3

[5] = test system: T. cruzi cysteine proteases (trypomastigote protein extract); assay: Proteinase activity in solution (Z-FR-AMC); assay type: biochemical, Trypanosoma cruzi; details: up to 100 µM, Z-FR-AMC substrate
Description: Trypomastigote protein extracts (Dm28c-Luc; 10^8 parasites/mL) were obtained as previously described. The cysteine protease activity of the total protein extracts (5 µg) was measured using the reaction buffer (CH3COONa 10 mM, pH 5.0 containing 1 mM DTT), in the presence of the fluorogenic peptide substrate […], CBZ-L-Phenylalanyl-l-Arginine amide (Z -FR-AMC), and serial dilutions of pyrazole-thiazolines derivatives (100–6.25 µM). The samples were incubated for 45 min at room temperature. The variation in arbitrary fluorescence units (AFU), corresponding to the enzymatic cleavage of the fluorogenic substrate, was monitored in a SpectraMax M2e reader (Molecular Devices, Sunnyvale, CA, USA) for 1 h, with excitation values at 370 nm and emission values at 460 nm. Extracts incubated with 0.5% DMSO or with cysteine protease inhibitor E-64 were used as […]. […] The inhibitory activity was expressed as percentage inhibition.

[6] = test system: T. cruzi (Dm28c-Luc)-infected Vero cell spheroids; assay: 3D culture model: T. cruzi-infected Vero cell spheroids; assay type: cell-based, Trypanosoma cruzi; details: 72 h; for parasite load, arbitrary luminescence unit (ALU): untreated ALU = 166,678 ± 22,824
Description: Tridimensional Vero cell cultures were obtained as previously described. Briefly, the isolated cells (2 × 10^4/well) were cultured in 96-well U-bottom plates previously coated with 1% agarose. The spheroids were kept for 5 days at 37 °C in RPMI 1640 medium supplemented with 10% FBS for complete three-dimensional organization. Both 2D and 3D culture models were used for trypanocidal activity assays.
Vero cell spheroids were infected for 24 h with 2 × 10^5 trypomastigotes (Dm28c-Luc). […] Parasite load was assessed by the luminescence reaction after adding the luciferase substrate (luciferin 300 µg/mL). In addition, fluorescence microscopy images of untreated and treated T. cruzi-infected spheroids were acquired after fixing the cultures with 4% paraformaldehyde in PBS and 4′,6-diamidino-2-phenylindole (DAPI) staining, a DNA dye. The samples were observed under the Zeiss Axio Imager M2 fluorescence microscope (Carl Zeiss, Baden-Württemberg, Germany).

In the case of Clc1ccc(-n2cc(C3=NCCS3)cn2)c(Cl)c1 [Compound 2c, 2-(1-(2,4-dichlorophenyl)-1H-pyrazol-4-yl)-4,5-dihydrothiazole], the IC90 [1] is reported as 16.9 ± 2.5 µM, the IC90 [2] is reported as 2.8 ± 0.6 µM and the “reduction of release of trypomastigotes in the culture supernatant after washout” value [3] is reported as 85%. It also gave an inhibition at 50 µM ([3]; Trypanosoma cruzi, Vero, read-out: inhibition of cell monolayer infection (intracellular amastigotes) after washout) of 78%, a CC50 at 72 h [4] of over 100 µM and a CC50 (Vero cells) of 107 ± 11.4 µM. The “maximum inhibition of cysteine protease activity” value [5] was at most 10%, the “parasite load, arbitrary luminescence unit (ALU)” value ([6]; 25 µM) was 3329 ± 250 ALU and the “parasite load, arbitrary luminescence unit (ALU)” value ([6]; 50 µM) was 1648 ± 343 ALU. For the same compound, the “inhibition compared to untreated T. cruzi-infected microtissue” value ([6]; 25 and 50 µM) was “approximately 98%”.
